Data taken from ChEMBL document CHEMBL1142203, “Antiviral activities of novel 5-phosphono-pent-2-en-1-yl nucleosides and their alkoxyalkyl phosphonoesters” (Antimicrob Agents Chemother, 2007).

Columns and labels:
[1] = tested on: Human betaherpesvirus 5; assay: Antiviral activity against HCMV AD169 in HFF cells by plaque reduction assay; assay type: functional, organism-based; details: Human betaherpesvirus 5, AD169, HFF
[2] = tested on: Human alphaherpesvirus 1; assay: Antiviral activity against HSV1 in MRC5 cells by DNA reduction assay; assay type: functional, organism-based; details: Human alphaherpesvirus 1, MRC5
[3] = tested on: Vaccinia virus; assay: Antiviral activity against Vaccinia virus Copenhagen in HFF cells by plaque reduction assay; assay type: functional, organism-based; details: Orthopoxvirus vaccinia
[4] = tested on: Cowpox virus; assay: Antiviral activity against Cowpox virus Brighton in HFF cells by plaque reduction assay; assay type: functional, organism-based
[5] = tested on: Human alphaherpesvirus 3; assay: Antiviral activity against VZV Ellen in HFF cell by CPE assay; assay type: functional, organism-based; details: Human alphaherpesvirus 3, Ellen
[6] = Cytotoxicity against HFF cells by neutral red uptake assay; assay type: cell-based; details: human
[7] = Cytotoxicity against plated MRC5 cells by neutral red uptake assay; assay type: cell-based; details: human
[8] = tested on: Hepatitis B virus; assay: Antiviral activity against HBV in HepG2 2.2.15 cells after 24 hrs by DNA reduction assay; assay type: functional, organism-based; details: HepG2, 24 h
[9] = Cytotoxicity against HepG2 2.2.15 cells assessed as inhibition of uptake of neutral red dye after 24 hrs; assay type: cell-based; details: human
[10] = Selectivity index, ratio of CC50 for HepG2 2.2.15 cells to EC50 for HBV; assay type: functional
[11] = tested on: Hepatitis B virus; assay: Antiviral activity against wild type HBV in Huh7 cells after 5 days; assay type: functional, organism-based; details: Huh-7, 120 h
[12] = tested on: Hepatitis B virus; assay: Antiviral activity against HBV with lamivudine-resistant polymerase L180M mutant in Huh7 cells after 5 days; assay type: functional, organism-based; details: Huh-7, 120 h
[13] = tested on: Hepatitis B virus; assay: Antiviral activity against HBV with lamivudine-resistant polymerase M204V mutant in Huh7 cells after 5 days; assay type: functional, organism-based; details: Huh-7, 120 h
[14] = tested on: Hepatitis B virus; assay: Antiviral activity against HBV with lamivudine-resistant polymerase M204I mutant in Huh7 cells after 5 days; assay type: functional, organism-based; details: Huh-7, 120 h
[15] = tested on: Hepatitis B virus; assay: Antiviral activity against HBV with lamivudine-resistant polymerase L180M/M204V double mutant in Huh7 cells after 5 days; assay type: functional, organism-based; details: Huh-7, 120 h
[16] = tested on: Hepatitis B virus; assay: Antiviral activity against HBV with […]-resistant polymerase N236T mutant in Huh7 cells after 5 days; assay type: functional, organism-based; details: Huh-7, 120 h
[17] = Cytotoxicity against Huh7 cells; assay type: cell-based, Huh-7; details: human
[18] = tested on: Human immunodeficiency virus 1; assay: Antiviral activity against HIV1 LAI in MT2 cells assessed as inhibition of p24 antigen production; assay type: functional, organism-based; details: Human immunodeficiency virus 1, LAI
[19] = Cytotoxicity against MT2 cells after 72 hrs; assay type: cell-based; details: human
[20] = tested on: Human gammaherpesvirus 4; assay: Antiviral activity against EBV in Daudi cells by ELISA; assay type: functional, organism-based; details: human gammaherpesvirus 4, Daudi
[21] = Cytotoxicity against Daudi cells; assay type: cell-based; details: human

## O=c1nc(O)ccn1C/C=C\CCP(=O)(O)O
[1]
  EC50: > 100 µM
[2]
  EC50: > 30 µM
[3]
  EC50: > 100 µM
[4]
  EC50: > 100 µM
[5]
  EC50: > 300 µM
[6]
  CC50: > 100 µM
[7]
  CC50: > 100 µM
[8]
  EC50: > 30 µM
[9]
  CC50 at 24 h: 712 µM

## Cc1cn(C/C=C\CCP(=O)(O)O)c(=O)[nH]c1=O
[1]
  EC50: > 100 µM
[2]
  EC50: > 30 µM
[3]
  EC50: > 100 µM
[4]
  EC50: > 100 µM
[5]
  EC50: > 300 µM
[6]
  CC50: > 100 µM
[7]
  CC50: > 100 µM
[8]
  EC50: > 30 µM
[9]
  CC50 at 24 h: 620 µM

## CCCCCCCCCCCCCCCCOCCCOP(=O)(O)CC/C=C\Cn1cc(C)c(=O)[nH]c1=O
[1]
  EC50: 0.66 µM
[2]
  EC50: 0.9 µM
[3]
  EC50: > 20 µM
[4]
  EC50: > 20 µM
[5]
  EC50: 3 µM
[6]
  CC50: > 100 µM
[8]
  EC50: 2 µM
[9]
  CC50 at 24 h: 122 µM
[10]
  Ratio CC50/EC50: 61
[11]
  EC50: 3 µM
[12]
  EC50: > 100 µM
[13]
  EC50: > 100 µM
[14]
  EC50: > 100 µM
[15]
  EC50: > 100 µM
[16]
  EC50: 3.8 µM
[17]
  CC50: 120 µM
[18]
  EC50: 1 µM
[19]
  CC50 at 72 h: 1.3 µM

## Nc1nc(=O)c2ncn(C/C=C\CCP(=O)(O)O)c2[nH]1
[1]
  EC50: 68.4 µM
[2]
  EC50: > 30 µM
[3]
  EC50: > 100 µM
[4]
  EC50: > 100 µM
[5]
  EC50: 7.2 µM
[6]
  CC50: > 100 µM
[7]
  CC50: > 100 µM
[8]
  EC50: > 30 µM
[9]
  CC50 at 24 h: 610 µM

## CCCCCCCCCCCCCCCCOCCCOP(=O)(O)CC/C=C\Cn1cnc2c(=O)nc(N)[nH]c21
[1]
  EC50: 1.8 µM
[2]
  EC50: 5.8 µM
[3]
  EC50: 7.5 µM
[4]
  EC50: 11 µM
[5]
  EC50: 12.2 µM
[20]
  EC50: 48 µM
[6]
  CC50: > 100 µM
[8]
  EC50: 2.4 µM
[9]
  CC50 at 24 h: > 1000 µM
[10]
  Ratio CC50/EC50: >417
[11]
  EC50: 8.8 µM
[12]
  EC50: > 100 µM
[13]
  EC50: 16 µM
[14]
  EC50: 13 µM
[15]
  EC50: > 100 µM
[16]
  EC50: 6.3 µM
[17]
  CC50: 929 µM

## Nc1ccn(C/C=C\CCP(=O)(O)O)c(=O)n1
[1]
  EC50: > 100 µM
[2]
  EC50: > 30 µM
[3]
  EC50: > 100 µM
[4]
  EC50: > 100 µM
[5]
  EC50: > 60 µM
[6]
  CC50: > 100 µM
[7]
  CC50: > 100 µM
[8]
  EC50: > 30 µM
[9]
  CC50 at 24 h: 600 µM

## CCCCCCCCCCCCCCCCOCCCOP(=O)(O)CC/C=C\Cn1cnc2c(N)ncnc21
[1]
  EC50: 15.7 µM
[2]
  EC50: 18 µM
[3]
  EC50: > 30 µM
[4]
  EC50: > 20 µM
[5]
  EC50: > 20 µM
[20]
  EC50: 0.1 µM
[21]
  CC50: > 100 µM
[6]
  CC50: 43 µM
[8]
  EC50: 1.5 µM
[9]
  CC50 at 24 h: 116 µM
[10]
  Ratio CC50/EC50: 77
[11]
  EC50: 9.2 µM
[12]
  EC50: 15 µM
[13]
  EC50: 9 µM
[14]
  EC50: 7.7 µM
[15]
  EC50: 8.1 µM
[16]
  EC50: 10 µM
[17]
  CC50: 110 µM

## CCCCCCCCCCCCCCCCOCCCOP(=O)(O)CC/C=C\Cn1ccc(=O)[nH]c1=O
[1]
  EC50: > 20 µM
[2]
  EC50: > 30 µM
[3]
  EC50: > 100 µM
[4]
  EC50: > 100 µM
[6]
  CC50: > 100 µM
[8]
  EC50: > 30 µM
[9]
  CC50 at 24 h: 155 µM

## Nc1ncnc2c1ncn2C/C=C\CCP(=O)(O)O
[1]
  EC50: > 100 µM
[2]
  EC50: > 30 µM
[3]
  EC50: > 100 µM
[4]
  EC50: > 100 µM
[5]
  EC50: > 300 µM
[20]
  EC50: > 4 µM
[6]
  CC50: > 100 µM
[7]
  CC50: > 100 µM
[8]
  EC50: > 30 µM
[9]
  CC50 at 24 h: 639 µM

## CCCCCCCCCCCCCCCCOCCCOP(=O)(O)CC/C=C\Cn1ccc(N)nc1=O
[1]
  EC50: 2.9 µM
[2]
  EC50: 4.7 µM
[3]
  EC50: > 20 µM
[4]
  EC50: > 20 µM
[5]
  EC50: 3.7 µM
[6]
  CC50: 56 µM
[8]
  EC50: 3.9 µM
[9]
  CC50 at 24 h: 621 µM
[10]
  Ratio CC50/EC50: 159
[11]
  EC50: 3.4 µM
[12]
  EC50: > 100 µM
[13]
  EC50: > 100 µM
[14]
  EC50: > 100 µM
[15]
  EC50: > 100 µM
[16]
  EC50: 4 µM
[17]
  CC50: 523 µM
[18]
  EC50: 2.5 µM
[19]
  CC50 at 72 h: 3.3 µM
